Data from US9220705B2, “Method of treating colorectal cancer” (priority 2013, dated 2015).

Experiments:
[1] = test system: C13* cisplatin resistant ovarian cancer cells; experiment: MTT cytotoxicity assay, cross-resistance profile; assay type: cell-based, human
Source text: (§1) Human breast (MCF-7) and colon (HCT-15, DDL1, SW480 and CaCo-2) carcinoma cell lines along with melanoma (A375) were obtained from the American Type Culture Collection (ATCC, Rockville, Md.). A431 are human cervical carcinoma cells kindly provided by Prof. F. Zunino (Molecular Pharmacology Unit, Experimental Oncology and Molecular Medicine, Istituto Nazionale dei Tumori, Milan, Italy). […] G. Marverti (Dept. of Biomedical Science, University of Modena, Italy). LoVo human colon-carcinoma cell line and its multidrug-resistant sublime (LoVo MDR) were kindly provided by Prof F. Maj one (Department of Biology of Padova University, Italy). […] Cell lines were maintained in the logarithmic phase at 37° C. in a 5% carbon dioxide atmosphere using the following culture media containing 10% fetal calf serum (Euroclone, Milan, Italy), antibiotics (50 units mL^−1 penicillin and 50 μg mL^−1 streptomycin), and 2 mM L-glutamine in: i) RPMI-1640 medium (Euroclone) for MCF-7, HCT-15, A431, DLD 1, 2008, and C13* cells; ii) F-12 HAM'S (Sigma Chemical Co.) for LoVo, LoVo MDR, and LoVo-OXP cells; iii) DMEM for A375 and SW 480 cells; and iv) MEM for CaCo-2 cells.
(§2) The growth inhibitory effect towards tumor cell lines was evaluated by means of the MTT (3-(4,5-dimethylthiazol-2-yl)-2,5-diphenyltetrazolium bromide) assay (Alley, M. C., et al., Cancer Res. 1988, 48, 589-601).
(§3) Briefly, depending upon the growth characteristics of the cell line, 3-8×10^3 cells well^−1, were seeded in 96-well microplates in growth medium (100 μL) and then incubated at 37° C. in a 5% carbon dioxide atmosphere. After 24 h, the medium was removed and replaced with a fresh one containing the compound to be studied, at the appropriate concentration, dissolved in 0.9% sodium chloride solution just before use. Triplicate cultures were established for each treatment. After 72 h, each well was treated with […] of a 5 mg mL^−1 MTT saline solution and, after 5 h of incubation, 100 μL of a sodium dodecylsulfate (SDS) solution in 0.01 M HCl were added. After an overnight incubation, the inhibition of cell growth induced by the tested complexes was determined by measuring the absorbance of each well at 570 nm using a BioRad 680 microplate reader. Mean absorbance for each drug dose was expressed as percentage of the control and plotted vs. drug concentration. Dose-response curves were fitted and IC50 values were calculated with four parameter logistic model (4PL).
(§4) A LoVo cell line retaining a multidrug resistance phenotype was also considered (LoVo MDR). Cross-resistance profiles were evaluated by means of the resistance factor (RF), which is defined as the ratio between the IC50 value for the resistant cells and that arising from the sensitive cells (Table 2).

[2] = test system: 2008 ovarian cancer cells; experiment: MTT cytotoxicity assay, cross-resistance profile; assay type: cell-based, human; conditions: 72 h
Source text: as §1, §2, §3, §4

[3] = test system: LoVo-OXP oxaliplatin resistant colon cancer cells; experiment: MTT cytotoxicity assay, cross-resistance profile; assay type: cell-based, human
Source text: as §1, §2, §3, §4

DLD-1 = experiment: MTT cytotoxicity assay, 72 h; assay type: cell-based, human; conditions: DLD-1, colon
Source text: as §1, §2, §3
(§5) Compound 1 was prepared for the first time almost twenty years ago however, until now, it had been tested (both in vitro and in vivo) only in a limited number of tumor cell lines (Hoeschele, J. D., et al., J. Med. Chem. 1994, 37, 2630-2636 and Shamsuddin, S., et al., J. Inorg. Biochem. 1996, 61, 291-301). The Pt(II) and Pt(IV) complexes containing isomeric forms of diaminocyclohexane, [PtCl2(cis-1,4-DACHA](1), [PtCl2(1R,2R-DACH)] (2), [Pt(OXA)(cis-1,4-DACH)] (3), cis,trans,cis-[Pt^IVCl2(OH)2(cis-1,4-DACH)] (4), cis,trans,cis-[Pt^IVCl2(DCA)2(cis-1,4-DACH)] (5), [Pt(CBDCA)(cis-1,4-DACH)] (6), cis,trans,cis-[Pt^IV(OXA)(OH)2(cis-1,4-DACH)] (7), and cis,trans,cis-[Pt^IV(OXA)(DCA)2(cis-1,4-DACH)] (8) were evaluated for their cytotoxic activity towards a panel of human tumor cell lines including cervical (A431), breast (MCF-7), cancers along with a melanoma (A375) and 4 different colon cancer cell lines corresponding to different stages of the disease progression (HCT-15, SW480, CaCo-2, DLD-1). The cytotoxicity was evaluated by means of the MTT test for 72 h treatment with increasing concentrations of the tested compounds.

MCF-7 = experiment: MTT cytotoxicity assay, 72 h; assay type: cell-based, human; conditions: MCF-7, breast
Source text: as §1, §2, §3, §5

HCT-15 = experiment: MTT cytotoxicity assay, 72 h; assay type: cell-based, human; conditions: HCT-15, colon
Source text: as §1, §2, §3, §5

A375 = experiment: MTT cytotoxicity assay, 72 h; assay type: cell-based, human; conditions: A375, skin
Source text: as §1, §2, §3, §5

A431 = experiment: MTT cytotoxicity assay, 72 h; assay type: cell-based, human; conditions: A431, cervix
Source text: as §1, §2, §3, §5

SW480 = experiment: MTT cytotoxicity assay, 72 h; assay type: cell-based, human; conditions: SW480, colon
Source text: as §1, §2, §3, §5

LoVo colon cancer cells = experiment: MTT cytotoxicity assay, cross-resistance profile; assay type: cell-based, human; conditions: 72 h
Source text: (§6) Human breast (MCF-7) and colon (HCT-15, DDL1, SW480 and CaCo-2) carcinoma cell lines along with melanoma (A375) were obtained from the American Type Culture Collection (ATCC, Rockville, Md.). A431 are human cervical carcinoma cells kindly provided by Prof. F. Zunino (Molecular Pharmacology Unit, Experimental Oncology and Molecular Medicine, Istituto Nazionale dei Tumori, Milan, Italy). […] G. Marverti (Dept. of Biomedical Science, University of Modena, Italy). LoVo human colon-carcinoma cell line and its multidrug-resistant sublime (LoVo MDR) were kindly provided by Prof F. Maj one (Department of Biology of Padova University, Italy).
as §2, §3, §4

[4] = test system: LoVo MDR multidrug resistant colon carcinoma subline; experiment: MTT cytotoxicity assay, cross-resistance profile; assay type: cell-based, human
Source text: as §1, §2, §3, §4
In Table 2 are also reported the results obtained in a multidrug resistant (MDR) colon carcinoma subline, LoVo MDR, in which the resistance to doxorubicin, a drug belonging to the MDR spectrum, is associated with an overexpression of multi-specific drug transporters, such as the 170 kDa P-glycoprotein (P-gp) (Wersinger, C., et al., Amino Acids 2000, 19, 667-685). It is well known that acquired MDR, whereby cells become refractory to multiple drugs, poses most important challenge to the success of anticancer chemotherapy.

CaCo-2 = experiment: MTT cytotoxicity assay, 72 h; assay type: cell-based, human; conditions: CaCo-2, colon
Source text: as §6, §2
Briefly, depending upon the growth characteristics of the cell line, 3-8×10^3 cells well^−1, were seeded in 96-well microplates in growth medium (100 μL) and then incubated at 37° C. in a 5% carbon dioxide atmosphere. […] After an overnight incubation, the inhibition of cell growth induced by the tested complexes was determined by measuring the absorbance of each well at 570 nm using a BioRad 680 microplate reader. Mean absorbance for each drug dose was expressed as percentage of the control and plotted vs. drug concentration. […]

[5] = test system: panel of human tumor cell lines (A431, MCF-7, A375, HCT-15, SW480, CaCo-2, DLD-1); experiment: MTT cytotoxicity, comparison over the Table 1 panel; assay type: cell-based; conditions: in five out of the seven cell lines
Method: as §3, with “After” for “Briefly, depending upon the growth characteristics of the cell line, 3-8×10^3 cells well^−1, were seeded in 96-well microplates in growth medium (100 μL) and then incubated at 37° C. in a 5% carbon dioxide atmosphere. After”
The cytotoxicity was evaluated by means of the MTT test for 72 h treatment with increasing concentrations of the tested compounds.

(OC-6-33)-dichloro(cis-1,4-cyclohexanediamine-N,N′)dihydroxyplatinum [Compound 4]
IC50 ([1]; C13*, 72 h, MTT): 13.8 ± 3.53 µM | R.F. (resistance factor) ([1]; IC50 C13* / IC50 2008, cross-resistance with cisplatin): 1.5 | IC50 [2]: 9.42 ± 1.16 µM | R.F. (resistance factor) ([3]; IC50 LoVo-OXP / IC50 LoVo, cross-resistance with oxaliplatin): 1.6 | IC50 ([3]; LoVo-OXP, 72 h, MTT): 9.46 ± 2.15 µM | IC50 (DLD-1): 7.74 ± 2.16 µM | IC50 (MCF-7): 7.01 ± 2.05 µM | IC50 (HCT-15): 10.3 ± 1.42 µM | IC50 (A375): 6.23 ± 1.96 µM | IC50 (A431): 6.33 ± 1.99 µM | IC50 (SW480): 6.32 ± 2.15 µM | IC50 (LoVo colon cancer cells): 6.64 ± 2.7 µM | R.F. (resistance factor) ([4]; IC50 LoVo-MDR / IC50 LoVo): 1.5 | IC50 ([4]; LoVo-MDR, 72 h, MTT): 9.26 ± 2.11 µM | IC50 (CaCo-2): 7.12 ± 3.13 µM | IC50 values fold lower than that of cisplatin [5]: up to 2
